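Five compound concentrations were applied to cells in 96-well plates for 48 hours; endpoints were derived by simple linear interpolation of the resulting dose-response curve. At the GI50, growth is halved.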 Active and inactive are the calls of the source. Rule as the data show it: active = GI50 up to about 1.1 µM and inactive = higher. Where a SMILES comes first, the peptide text is derived from it. [ ]: non-standard residue; d: D form. The star is where a group is joined. NMeAc5c = CNC1(C(=O)O)CCCC1; Boc = CC(C)(C)OC(=O)*; OBn = c1ccc(CO*)cc1
Tests used:
Experiment in all cases: NCI tumour cell line growth inhibition, 48 h
DU-145 = system: DU-145
HT-29 = system: HT-29
MOLT-4 = system: MOLT-4
K562 = system: K562
HCT-116 = system: HCT-116
SK-MEL-2 = system: SK-MEL-2
MDA-MB-231 = system: MDA-MB-231
MDA-N = system: MDA-N
NCI-H460 = system: NCI-H460
HOP-92 = system: HOP-92
SK-OV-3 = system: SK-OV-3
OVCAR-5 = system: OVCAR-5
M14 = system: M14
UACC-257 = system: UACC-257
SN12C = system: SN12C
T47D = system: T47D
SK-MEL-28 = system: SK-MEL-28
SW-620 = system: SW-620
RPMI-8226 = system: RPMI-8226
SF-268 = system: SF-268

SMILES | GI50 (DU-145) | GI50 (HT-29) | GI50 (MOLT-4) | GI50 (K562) | GI50 (HCT-116) | GI50 (SK-MEL-2) | GI50 (MDA-MB-231) | GI50 (MDA-N) | GI50 (NCI-H460) | GI50 (HOP-92) | GI50 (SK-OV-3) | GI50 (OVCAR-5) | GI50 (M14) | GI50 (UACC-257) | GI50 (SN12C) | GI50 (T47D) | GI50 (SK-MEL-28) | GI50 (SW-620) | GI50 (RPMI-8226) | GI50 (SF-268)
CC1CC[C@@]2(OC1)OC1C[C@H]3[C@@H]4CC=C5CC(OC6OC(CO)C(OC7OC(CO)C(O)C(OC8OCC(O)C(O)C8O)C7OC7OC(CO)C(OC8OC(C)C(OC9OC(C)C(O)C(O)C9O)C(O)C8O)C(O)C7O)C(O)C6O)CCC5(C)[C@H]4CCC3(C)C1[C@@H]2C (stereo not given in full) | 7.87 µM (inactive) | 8.17 µM (inactive) | 11.6 µM (inactive) | 8.05 µM (inactive) | 8.47 µM (inactive) | 6.71 µM (inactive) | 5.36 µM (inactive) | 9.02 µM (inactive) | 9.93 µM (inactive) | 7.46 µM (inactive) | 9.23 µM (inactive) | 7.46 µM (inactive) | 4.28 µM (inactive) | 9.35 µM (inactive) | 9.35 µM (inactive) | 9.29 µM (inactive) | 11.2 µM (inactive) | 11.4 µM (inactive) | 10.8 µM (inactive) | 9.71 µM (inactive)
Nc1nc(-c2cccc([N+](=O)[O-])c2)cc(-c2cc(-c3cccc([N+](=O)[O-])c3)nc(N)n2)n1 | > 100 µM (inactive) | > 100 µM (inactive) | > 100 µM (inactive) | > 100 µM (inactive) | > 100 µM (inactive) | > 100 µM (inactive) | > 100 µM (inactive) | > 100 µM (inactive) | > 100 µM (inactive) | > 100 µM (inactive) | > 100 µM (inactive) | > 100 µM (inactive) | > 100 µM (inactive) | > 100 µM (inactive) | > 100 µM (inactive) | > 100 µM (inactive) | > 100 µM (inactive) | > 100 µM (inactive) | > 100 µM (inactive) | > 100 µM (inactive)
CCN(CC)C1Oc2cc3c(cc2C(c2cc(OC)c(OC)c(OC)c2)C1C)OCO3 (stereo not given) | 1.77 µM (inactive) | 0.603 µM (active) | 0.871 µM (active) | 0.308 µM (active) | 0.465 µM (active) | 0.887 µM (active) | 3.15 µM (inactive) | 0.0836 µM (active) | 0.944 µM (active) | 0.676 µM (active) | 1.1 µM (active) | 2 µM (inactive) | 0.64 µM (active) | 2.88 µM (inactive) | 1.52 µM (inactive) | 9.35 µM (inactive) | 0.719 µM (active) | 0.531 µM (active) | 0.927 µM (active) | 3.61 µM (inactive)
Cc1c2ccccc2c(CSC(=N)N)c2ccccc12 | 0.084 µM (active) | 0.163 µM (active) | 0.0284 µM (active) | 0.2 µM (active) | 0.189 µM (active) | 0.192 µM (active) | 0.276 µM (active) | 0.175 µM (active) | 0.074 µM (active) | 0.29 µM (active) | 0.344 µM (active) | 0.326 µM (active) | 0.211 µM (active) | 0.187 µM (active) | 0.152 µM (active) | 0.535 µM (active) | 0.27 µM (active) | 0.121 µM (active) | 0.0841 µM (active) | 0.0738 µM (active)
CN(C(=O)C(Cc1ccccc1)NC(=O)OC(C)(C)C)C1(C(=O)NC(Cc2ccccc2)C(=O)OCc2ccccc2)CCCC1 (stereo not drawn) (Boc-Phe-[NMeAc5c]-Phe-OBn; configuration not given here) | 58.3 µM (inactive) | 22.3 µM (inactive) | 26.9 µM (inactive) | 29.8 µM (inactive) | 30.6 µM (inactive) | 44.3 µM (inactive) | 23.4 µM (inactive) | 23.2 µM (inactive) | 23.6 µM (inactive) | 53.7 µM (inactive) | 0.653 µM (active) | > 100 µM (inactive) | 23.1 µM (inactive) | 57.3 µM (inactive) | 46.5 µM (inactive) | 75.5 µM (inactive) | 58.1 µM (inactive) | 39.7 µM (inactive) | 22.5 µM (inactive) | 35.4 µM (inactive)
CCCCN(C)C(=O)C1=C(C)NC(C)=C(C(=O)N(C)CCCC)C1 | > 100 µM (inactive) | > 100 µM (inactive) | > 100 µM (inactive) | 54.3 µM (inactive) | > 100 µM (inactive) | > 100 µM (inactive) | > 100 µM (inactive) | > 100 µM (inactive) | > 100 µM (inactive) | > 100 µM (inactive) | > 100 µM (inactive) | > 100 µM (inactive) | > 100 µM (inactive) | > 100 µM (inactive) | > 100 µM (inactive) | 54.7 µM (inactive) | > 100 µM (inactive) | > 100 µM (inactive) | > 100 µM (inactive) | > 100 µM (inactive)
CCC1(C)C=Cc2c(cc(O)c3c(=O)c4ccccc4n(C)c23)O1 (stereo not given) | > 10 µM (inactive) | > 10 µM (inactive) | > 10 µM (inactive) | > 10 µM (inactive) | > 10 µM (inactive) | > 10 µM (inactive) | > 10 µM (inactive) | > 10 µM (inactive) | > 10 µM (inactive) | > 10 µM (inactive) | > 10 µM (inactive) | > 10 µM (inactive) | > 10 µM (inactive) | > 10 µM (inactive) | > 10 µM (inactive) | > 10 µM (inactive) | > 10 µM (inactive) | > 10 µM (inactive) | > 10 µM (inactive) | > 10 µM (inactive)
C/C(=N/NC(=S)N1CCCCCC1)c1ccccc1O | 4.72 µM (inactive) | 7.73 µM (inactive) | 2.26 µM (inactive) | 3.31 µM (inactive) | 3.11 µM (inactive) | 3.29 µM (inactive) | 29.9 µM (inactive) | 13.6 µM (inactive) | 0.65 µM (active) | 50.2 µM (inactive) | 12.7 µM (inactive) | 12.7 µM (inactive) | 1.49 µM (inactive) | 4.6 µM (inactive) | 4.63 µM (inactive) | 7.6 µM (inactive) | 8.36 µM (inactive) | 4.97 µM (inactive) | 2.48 µM (inactive) | 3.03 µM (inactive)
CC(=O)Nc1ccc2[nH]c(C(=O)N3CC(CCl)c4c3cc(N)c3ccccc43)cc2c1 (stereo not given) | < 0.01 µM (active) | < 0.0127 µM (active) | < 0.0115 µM (active) | < 0.0163 µM (active) | 0.0137 µM (active) | < 0.0143 µM (active) | < 0.0237 µM (active) | 0.0177 µM (active) | < 0.01 µM (active) | < 0.0191 µM (active) | 0.0174 µM (active) | < 0.0179 µM (active) | 0.0167 µM (active) | 0.0172 µM (active) | 0.0118 µM (active) | < 0.0164 µM (active) | 0.0161 µM (active) | 0.0118 µM (active) | < 0.0171 µM (active) | < 0.01 µM (active)
C=C1C(=O)OC2CC1C(O)C/C(C)=C/CC/C(C)=C/C(O)CC2C (stereo not given) | 2.2 µM (inactive) | 1.78 µM (inactive) | 0.625 µM (active) | 1 µM (active) | 1.45 µM (inactive) | 3.4 µM (inactive) | 3.52 µM (inactive) | 1.19 µM (inactive) | 2.88 µM (inactive) | 1.26 µM (inactive) | 12.7 µM (inactive) | 4.97 µM (inactive) | 2.51 µM (inactive) | 2.4 µM (inactive) | 1.85 µM (inactive) | 0.824 µM (active) | 4.9 µM (inactive) | 2 µM (inactive) | 1.32 µM (inactive) | 2.79 µM (inactive)

Reference: ChEMBL document CHEMBL1201862, “PubChem BioAssay data set” (2004)
